Measured values as given in ChEMBL document CHEMBL5316284, “Structural Determinants of Indole-2-carboxamides: Identification of Lead Acetamides with Pan Antimycobacterial Activity” (J Med Chem, 2023).
Converted amounts (≈) assume the structure as drawn.

What was measured:
[1] = system: Mycobacterium tuberculosis; test: Antimycobacterial activity against Mycobacterium tuberculosis H37Rv mc2 6206 assessed as inhibition of bacterial growth measured after 7 days by visual analysis; type: functional; conditions: H37Rv mc2 6206, 168 h, time 7 day
[2] = system: Mycobacteroides abscessus; test: Antimycobacterial activity against Mycobacterium abscessus […] assessed as inhibition of bacterial growth measured after 5 days by visual analysis; type: functional; conditions: 120 h, time 5 day
[3] = Selectivity index, ratio of IC50 for Cytotoxicity against human WI26VA4 cells to MIC for antimycobacterial activity against Mycobacterium tuberculosis H37Rv mc2 6206; type: toxicity, cell-based; conditions: read-out: Selectivity Index
[4] = Plasma protein binding in human at 10 ug/ml incubated for 4 hrs under shaking condition by LC/MS/MS analysis; type: ADME, cell-free; conditions: at 10 µg/mL, read-out: PPB (converted)
[5] = Kinetic solubility of compound at pH 7.4 incubated for 6 hrs by LC-MS/MS analysis; type: physicochemical; conditions: buffer, read-out: Kinetic_solubility
[6] = Permeability of the compound by PAMPA method; type: ADME
[7] = system: Mycobacterium kansasii; test: Antimycobacterial activity against Mycobacterium kansasii ATCC 1279 assessed as inhibition of bacterial growth by visual analysis; type: functional
[8] = Metabolic stability in human liver S9 fraction assessed as parent compound remaining at 5 ug/ml after 90 mins in presence of NADPH by LC/MS analysis; type: ADME, subcellular; conditions: s9, 1.5 h, dose 5 µg/ml
[9] = system: Mycobacterium intracellulare; test: Antimycobacterial activity against Mycobacterium intracellulare 1956 assessed as inhibition of bacterial growth by visual analysis; type: functional
[10] = Selectivity index, ratio of IC50 for Cytotoxicity against human WI26VA4 cells to MIC for antimycobacterial activity against Mycobacterium abscessus […]; type: toxicity, cell-based; conditions: read-out: Selectivity Index
[11] = Metabolic stability in mouse liver S9 fraction assessed as parent compound remaining at 5 ug/ml after 90 mins in presence of NADPH by LC/MS analysis; type: ADME, subcellular; conditions: s9, 1.5 h, dose 5 µg/ml
[12] = Antimycobacterial activity against Mycobacterium avium subsp. avium 2585R assessed as inhibition of bacterial growth by visual analysis; type: functional
[13] = system: Mycobacteroides chelonae; test: Antimycobacterial activity against Mycobacteroides chelonae ATCC 35752 assessed as inhibition of bacterial growth by visual analysis; type: functional
[14] = system: Mycolicibacterium fortuitum; test: Antimycobacterial activity against Mycobacterium fortuitum ATCC 6841 assessed as inhibition of bacterial growth by visual analysis; type: functional
[15] = Cytotoxicity against human WI26VA4 cells assessed as inhibition of cell growth measured after 72 hrs by MTT assay; type: toxicity, cell-based
[16] = system: Mycobacterium intracellulare subsp. chimaera; test: Antimycobacterial activity against Mycobacterium intracellulare subsp. chimaera 1501948 assessed as inhibition of bacterial growth by visual analysis; type: functional
[17] = system: THP-1; test: Cytotoxicity against human THP-1 cells assessed as inhibition of cell growth measured after 72 hrs by MTT assay; type: toxicity, cell-based

| Compound | MIC [1] [µg/mL] | MIC [2] [µg/mL] | fraction unbound at 4 h, 10 ug/ml [4] | solubility kinetic at 6 h [5] [µg/mL] | permeability [6] | further results |
| --- | --- | --- | --- | --- | --- | --- |
| COc1ccc(NCC(=O)NC2CCCCCCC2)cc1 | 64 (≈ 220 µM) | > 64 | – | – | – | – |
| C[C@@H]1[C@H]2C[C@@H](C[C@H]1NC(=O)CNc1ccc(Br)cc1)C2(C)C | 16 (≈ 43.8 µM) | 4 (≈ 10.9 µM) | – | – | – | – |
| C[C@@H]1[C@H]2C[C@@H](C[C@H]1NC(=O)CNc1ccccc1Cl)C2(C)C | 0.25 (≈ 0.779 µM) | 1 (≈ 3.12 µM) | 0.045 | 14.3 (≈ 44.6 µM) | 0.38 10^-6 cm/s | selectivity ratio [3]: > 80; MIC [7]: 16 µg/mL (≈ 49.9 µM); t1/2 [8]: 5.1 h; MIC [9]: 16 µg/mL (≈ 49.9 µM); selectivity ratio [10]: > 20; t1/2 [11]: 8.6 h; MIC [12]: 16 µg/mL (≈ 49.9 µM); MIC [13]: 4 µg/mL (≈ 12.5 µM); MIC [14]: 2 µg/mL (≈ 6.23 µM); IC50 [15]: > 20 µg/mL; MIC [16]: > 64 µg/mL |
| O=C(CNc1ccc(Cl)cc1)NC12CC3CC(CC(C3)C1)C2 | 16 (≈ 50.2 µM) | 4 (≈ 12.5 µM) | – | – | – | – |
| O=C(CNc1ccccc1Br)NC12CC3CC(CC(C3)C1)C2 | 8 (≈ 22 µM) | 8 (≈ 22 µM) | – | – | – | – |
| COc1ccc(NCC(=O)NC2C3CC4CC(C3)CC2C4)cc1 (stereo unspecified) | 32 (≈ 102 µM) | 32 (≈ 102 µM) | – | – | – | – |
| O=C(CNc1ccc(C(F)(F)F)cc1)NC1CCCCCCC1 | 32 (≈ 97.4 µM) | 64 (≈ 195 µM) | – | – | – | – |
| C[C@@H]1[C@H]2C[C@@H](C[C@H]1NC(=O)CNc1ccc(OC(F)(F)F)cc1)C2(C)C | 4 (≈ 10.8 µM) | 1 (≈ 2.7 µM) | 0.048 | 4.5 (≈ 12.1 µM) | 3.19 10^-6 cm/s | selectivity ratio [3]: > 5; t1/2 [8]: 9.2 h; selectivity ratio [10]: > 20; t1/2 [11]: 4.1 h; IC50 [15]: > 20 µg/mL |
| Cc1ccc(NCC(=O)NC2CCCCCCC2)cc1 | 32 (≈ 117 µM) | > 64 | – | – | – | – |
| O=C(CNc1ccccc1)NC12CC3CC(CC(C3)C1)C2 | 32 (≈ 113 µM) | 16 (≈ 56.3 µM) | – | – | – | – |
| O=C(CNc1ccccc1OC(F)(F)F)NC12CC3CC(CC(C3)C1)C2 | 1 (≈ 2.71 µM) | > 64 | – | – | – | – |
| C[C@H]1CC[C@H](NC(=O)CNc2ccc(Cl)cc2)CC1 | 64 (≈ 228 µM) | > 64 | – | – | – | – |
| O=C(CNc1cccc(Cl)c1)NC12CC3CC(CC(C3)C1)C2 | 1 (≈ 3.14 µM) | 1 (≈ 3.14 µM) | 0.002 | 30.3 (≈ 95 µM) | 0.32 10^-6 cm/s | selectivity ratio [3]: > 20; t1/2 [8]: 5.6 h; selectivity ratio [10]: > 20; t1/2 [11]: 1.7 h; IC50 [15]: > 20 µg/mL |
| C[C@@H]1[C@H]2C[C@@H](C[C@H]1NC(=O)CNc1ccc(Cl)cc1)C2(C)C | 16 (≈ 49.9 µM) | 4 (≈ 12.5 µM) | – | – | – | – |
| O=C(CNc1ccccc1)NC1C2CC3CC(C2)CC1C3 (stereo unspecified) | 16 (≈ 56.3 µM) | > 64 | – | – | – | – |
| Cc1cc(C)c2cc(C(=O)NC3CCCCCCC3)[nH]c2c1 | 0.02 (≈ 0.067 µM) | 0.063 (≈ 0.211 µM) | 0.018 | 1.6 (≈ 5.36 µM) | 0.18 10^-6 cm/s | selectivity ratio [3]: > 764; t1/2 [8]: 0.5 h; selectivity ratio [10]: > 237; IC50 [17]: > 14.9 µg/mL |
| O=C(CNc1ccc(Br)cc1)NC12CC3CC(CC(C3)C1)C2 | 8 (≈ 22 µM) | 2 (≈ 5.51 µM) | 0.004 | 1.3 (≈ 3.58 µM) | 0.28 10^-6 cm/s | selectivity ratio [3]: > 2.5; t1/2 [8]: 2.5 h; selectivity ratio [10]: > 10; t1/2 [11]: 4 h; IC50 [15]: > 20 µg/mL |
| O=C(CNc1ccccc1)NC1CCCCCCC1 | 8 (≈ 30.7 µM) | 8 (≈ 30.7 µM) | – | – | – | – |
| CNC(=C[N+](=O)[O-])NCCSCc1ccc(CN(C)C)o1 [RANITIDINE] | – | – | 0.793 | 77.5 (≈ 246 µM) | 3.47 10^-6 cm/s | – |
| O=C(CNc1ccc(Cl)cc1)NC1CCCCCCC1 | 64 (≈ 217 µM) | 32 (≈ 109 µM) | – | – | – | – |
